Test results reported in US6087376A (priority 1998, dated 2000).

Experiments:
[1] = tested on: rat striatal slices preloaded with [3H]DA; assay: [3H]DA release assay: drug-evoked [3H]overflow / fractional release from rat striatal slices preloaded with [3H]DA; format: cell-based
Method: Rat striata were rapidly dissected on ice and were sliced using a McIlwain tissue chopper. […] Slices were rinsed with 15 mL fresh buffer and then incubated in fresh buffer containing 0.1 μM [^3 H]DA (6-8 slices/3 mL) for an additional 30 min. Subsequently, slices were rinsed with 15 mL fresh buffer and transferred to a glass superfusion chamber. […] After 60 min of superfusion when basal outflow was stabilized, two 5-min samples (5 mL) were collected to determine basal [^3 H]outflow.
The concentration-response for each drug was determined using a repeated-measures design.
The pH and volume of the solubilized tissue samples were adjusted to those of the superfusate samples.
Fractional release for each superfusate sample was calculated by dividing the tritium collected in each sample by the total tritium present in the tissue at the time of sample collection. Fractional release was expressed as a percentage of total tritium in the tissue at the time of sample collection. Basal outflow was calculated from the average of the tritium collected in the two 5-min samples just before the addition of drug.
Inhibition of synaptosomal and vesicular [^3 H]DA uptake were analyzed by repeated-measures, one-way ANOVA, and by an iterative nonlinear least-squares curve-fitting program (GraphPAD-PRIZM; GraphPAD, San Diego, Calif.) to obtain IC50 values. Dunnett's post hoc test was used to compare treatment means to a single control mean. Also, Duncan's New Multiple Range Test or Fisher's LSD post hoc analysis were used to compare pairs of treatment means. Duncan's New Multiple Range Test was used when significant one-way ANOVA's were obtained or when significant main effects were obtained in the two-way ANOVA's. Fisher's LSD post hoc analysis is a more conservative test, which takes into account error which cumulates during multiple comparisons of pairs of means. Fisher's LSD analysis was used when the interaction term was significant in the two-way ANOVAs, specifically in the post hoc analysis of drug×time interactions. Statistical significance was reached when P<0.05 (two-tailed, unless otherwise indicated).

[2] = tested on: nicotine-evoked [3H]dopamine release from rat striatal slices; nicotinic receptors; assay: Lobeline inhibition of nicotine-evoked [3H]DA release from rat striatal slices; format: cell-based; details: low concentrations
Method: Striatal slices were obtained from rat brain, preincubated with [^3 H]dopamine (0.1 μM) for 30 min and subsequently superfused with Kreb's buffer for 60 min.

rat striatum = assay: Striatal DA and DOPAC content after in vivo administration of lobeline
Source text: Male Sprague-Dawley rats (200-250 g) were obtained from Harlan Laboratories (Indianapolis, Ind.) and were housed two per cage with free access to food and water in the Division of Lab Animal Resources at the College of Pharmacy at the University of Kentucky. Experimental protocols involving the animals were in strict accordance with the NIH Guide for the Care and Use of Laboratory Animals and were approved by the Institutional Animal Care and Use Committee at the University of Kentucky.
Rats were killed 24 hrs after the last injection and striata were obtained immediately for determination of endogenous DA and DOPAC content. […] Striata were obtained for endogenous DA and DOPAC content determination 21 days after osmotic minipump implantation. Lobeline dose was expressed in terms of mg of lobeline hemisulfate salt per kg body weight.
An aliquot (500 μL) of 0.1 M perchloric acid (pH 1.0) containing 0.14-0.29 μM 3,4-dihydroxybenzylamine hydrobromide (DHBA, internal standard) was added to 100 mg of striatum and the mixture was sonicated with an Ultrasonic Processor (40-Watt Model, Sonics & Materials, Danbury, Conn.). The homogenate was centrifuged at 30,000×g for 10 min at 4° C., and the supernatant was filtered (0.2 μm nylon membrane). An aliquot (50 μL) of the filtrate (1:1, 1:50, 1:100, 1:200 or 1:500 dilution with 0.1 M perchloric acid) was injected onto the high pressure liquid chromatograph with electrochemical detection (HPLC-EC) system. The HPLC-EC system consisted of syringe loading injector (Model 7725, Rheodyne L. P., Cotati, Calif.), Beckman Model 116 HPLC pump (Beckman, Fullerton, Calif.), ESA ODS ultrasphere C18 reverse-phase column ([…]×75 mm, 3 micron particle size, ESA, Bedford, Mass.), and an ESA 5100A coulometric electrochemical detector with a model 5011 detector cell (E1=+0.05 V, E2=+0.32 V). The eluent was 6% acetonitrile, 10 μM EDTA, 1.4 mM 1-octane-sulfonic acid and 76 mM sodium phosphate monobasic (pH 3.1). All separations were performed at room temperature at a flow rate of 1 ml/min. Complete separation of DA and DOPAC and reequilibration of the system required 9 min. The retention time of DA, DOPAC and DHBA standards was used to identify the relevant peak. Peak heights were used to calculate the detected amount of compound based on standard curves. The detection limit of DA and DOPAC was 0.2 and 0.05 pg/50 μL injected, respectively. Recovery of internal standard was routinely 75%.

[3] = tested on: nicotinic receptors in mouse brain; details: in vivo; cited from earlier work
monoamine oxidase = details: cited from earlier work
[4] = tested on: tobacco smoking cessation; details: short-term use as smoking deterrent; cited from earlier work
learning and memory = details: in vivo; cited from earlier work
[5] = chronic, 30 mg/kg/day s.c. osmotic minipump, 21 days
[6] = intermittent, 3 mg/kg s.c. once daily for 10 days
[7] = intermittent, 10 mg/kg s.c. once daily for 10 days

## CN1[C@@H](CC(=O)c2ccccc2)CCC[C@H]1C[C@H](O)c1ccccc1 [Lobeline, 2-[G-(β-hydroxyphenethyl)-1-methyl-2-piperidyl]-acetophenone]
[1]; 3 μM, 15 and 20 min after addition
  effect on fractional release: significant increase in fractional release
[1]; 0.01-1 μM, entire superfusion period
  effect on fractional release (low concentrations): did not significantly increase fractional release
[1]; 10-100 μM, from 10 min after addition to end
  effect on fractional release (high concentrations): significantly increased
[1]; calcium-free buffer vs control
  calcium-dependency of [3H]overflow: not altered
[1]; higher concentrations (10-100 μM)
  effect on [3H]overflow compared to nicotine: 8-34 fold
[1]; lobeline
  time of peak effect after start of exposure: 10 to 20 min
[1]; lobeline 0.1 μM, calcium-free buffer with 0.5 mM EGTA
  total [3H]overflow: 0 ± 0
[1]; lobeline 0.1 μM, control buffer
  total [3H]overflow: 0.6 ± 0.4
[1]; lobeline 1 μM, calcium-free buffer with 0.5 mM EGTA
  total [3H]overflow: 2.9 ± 0.2
[1]; lobeline 1 μM, control buffer
  total [3H]overflow: 2.0 ± 0.6
[1]; lobeline 10 μM, calcium-free buffer with 0.5 mM EGTA
  total [3H]overflow: 45.0 ± 4.2
[1]; lobeline 10 μM, control buffer
  total [3H]overflow: 31.9 ± 2.2
[1]; lobeline 30 μM
  peak fractional release: approximately 15 % of total tritium in the slice
[1]; lobeline 100 μM
  peak fractional release: ~30 % of total tritium in the slice
[1]; lobeline 100 μM, calcium-free buffer with 0.5 mM EGTA
  total [3H]overflow: 185.0 ± 12.0
[1]; lobeline 100 μM, control buffer
  total [3H]overflow: 198.0 ± 20
[1]; lobeline 30 and 100 μM
  fractional release over the remainder of the superfusion period: 10-20 % of total tritium in the slice
[1]; read-out: lowest concentration which evoked a significant increase in [3H]overflow
  minimal effective concentration: 1 µM
[2]
  concentrations inhibiting nicotine-evoked DA release: 0.1 to 1 µM
Rat striatum; acute, 1 mg/kg s.c., 1 hr
  striatal DA content: 756 ± 111 ng/mg protein
  striatal DOPAC content: 81 ± 12 ng/mg protein
Rat striatum; acute, 3 mg/kg s.c., 1 hr
  striatal DA content: 761 ± 103 ng/mg protein
  striatal DOPAC content: 89 ± 15 ng/mg protein
Rat striatum; acute, 10 mg/kg s.c., 1 hr
  striatal DA content: 841 ± 76 ng/mg protein
  striatal DOPAC content: 82 ± 8 ng/mg protein
Rat striatum; acute, 30 mg/kg s.c., 1 hr
  striatal DA content: 665 ± 126 ng/mg protein
  striatal DOPAC content: 72 ± 10 ng/mg protein
Rat striatum; any dose or treatment regimen
  effect on striatal DA or DOPAC content in vivo: did not significantly alter
Rat striatum; [5]
  striatal DA content: 856 ± 144 ng/mg protein
  striatal DOPAC content: 62 ± 10 ng/mg protein
Rat striatum; [6]
  striatal DA content: 778 ± 27 ng/mg protein
  striatal DOPAC content: 57 ± 12 ng/mg protein
Rat striatum; [7]
  striatal DA content: 800 ± 41 ng/mg protein
  striatal DOPAC content: 57 ± 3 ng/mg protein
[3]
  number of nicotinic receptors after chronic treatment: did not increase the number of nicotinic receptors
Monoamine oxidase
  inhibition of monoamine oxidase: does not inhibit monoamine oxidase
[4]
  acute toxicity: nausea, severe heartburn and dizziness
Learning and memory
  learning and memory: improvement of learning and memory
